Data taken from the OligoGym collection.
After the bases stand the sugars from the 5' end (letter, count) and the backbone: PS all phosphorothioate, else s phosphorothioate and o phosphodiester by linkage. Methylation of C is not given here. l = locked nucleic acid (LNA); d = 2'-deoxy (DNA)

Molecular target: SNHG14
Conditions: ASO
[1] = Mouse Primary Neuronal Cell, 0.005 µM

| Sequence | target mRNA inhibition (Human Neuronal Cell, 0.2 µM) [%] | target mRNA inhibition (Human Neuronal Cell, 1 µM) [%] | target mRNA inhibition (Human Neuronal Cell, 7.5 µM) [%] | also measured |
| --- | --- | --- | --- | --- |
| GCCAATACCCACAAAC (sugars l3 d10 l3, PS) | 11 | 33 |  |  |
| ACTGTTTATACCCTTTC (sugars l1 d11 l1 d2 l2, PS) |  |  | 56 |  |
| AAAGATCATTCTCAACAA (sugars l5 d10 l3, PS) |  |  | 64 |  |
| GCAACATTATTAACCACCT (sugars ldddddddddddldlddll, PS) |  |  | 41 |  |
| TTTTTTCTTACTATCTTCAA (sugars ldllldldddddddddldll, PS) |  |  | 58 |  |
| TATTGATTCAATTCCCT (sugars ldldlddddddddldll, PS) |  |  | 60 |  |
| TTCTACTATACTTTCCTCT (sugars ldddldddddddldlddll, PS) |  |  | 58 |  |
| ATCTGCTACATATTCTT (sugars l4 d11 l2, PS) | 50 | 59 |  |  |
| TCATTTCATATTACTAAC (sugars l4 d12 l2, PS) | 13 | 32 |  |  |
| TACATCTCATACTTGC (sugars l4 d10 l2, PS) |  |  |  | target mRNA inhibition [1]: 97% |
| GCTTTTAACCAGAGTG (sugars l4 d10 l2, PS) |  |  | 72 |  |
| GCTTCTACTTAAATAT (sugars l3 d10 l3, PS) | 27 | 21 |  |  |
| CCCTTATAGTTATTAA (sugars l3 d10 l3, PS) | 26 | 13 |  |  |
| AAAATTATTTATACACCATC (sugars lllllllddddddldlddll, PS) |  |  | 49 |  |
| CATTTACAAGCACATA (sugars l2 d10 l4, PS) | 43 | 37 |  |  |
| ATCCCTTTGTAATCAT (sugars l4 d10 l2, PS) | 33 | 28 |  |  |
| TGTACTTTCCTTTACCA (sugars l2 d13 l2, PS) | 33 | 59 |  |  |
| AGCAACATTATTAACCACC (sugars ldddddddddddldlddll, PS) |  |  | 26 |  |
| TTCCTTTCATTAACATTT (sugars l4 d12 l2, PS) | 37 | 55 |  |  |
| AAATCTCAACTACCATTTTT (sugars llldldddddddddlldlll, PS) |  |  | -2 |  |
| TTCTGTATACACCATCC (sugars l1 d1 l1 d11 l3, PS) |  |  | 58 |  |
| TTCTACTATACTTTCC (sugars l4 d10 l2, PS) | 55 | 69 |  |  |
| GATCATTCTCAACAATT (sugars l2 d1 l2 d6 l6, PS) |  |  | 10 |  |

| Sequence | target mRNA inhibition (Human Neuronal Cell, 0.2 µM) [%] | target mRNA inhibition (Human Neuronal Cell, 1 µM) [%] | target mRNA inhibition (Human Neuronal Cell, 7.5 µM) [%] | also measured |
| --- | --- | --- | --- | --- |
| TGTTTCCATCTACTATTA (sugars l1 d4 l1 d10 l2, PS) |  |  | 60 |  |
| CAACATTATTAACCACCTTA (sugars ldlldddddddddddlddll, PS) |  |  | 57 |  |
| ACCACCTTAAGTAACA (sugars l4 d10 l2, PS) | 27 | 33 |  |  |
| TTATACCTTTCTTTAACCCT (sugars ldddldddddddddddldll, PS) |  |  | 57 |  |
| ATTTCATATTACTAACTA (sugars l2 d12 l4, PS) | 3 | 20 |  |  |
| CCTACATCTCATACTTG (sugars l4 d11 l2, PS) | -13 | 17 |  | target mRNA inhibition (Human Neuronal Cell, 5 µM): 12%; target mRNA inhibition [1]: 94.2% |
| GCTTTTAACCAGAGTGGC (sugars l1 d14 l3, PS) |  |  | 63 |  |
| TACACTTAATTATACTTCCA (sugars l1 d4 l1 d11 l3, PS) |  |  | 53 |  |
| ATATTGATTCAATTCCC (sugars ldddlddddddllddll, PS) |  |  | 62 |  |
| AAAATCTCAACTACCATTTT (sugars lddllldddddddldldlll, PS) |  |  | 36 |  |
| TTGTCTCTAATCCTATT (sugars l2 d11 l4, PS) | 24 | 52 |  |  |
| GTTACCTACATCTCAT (sugars l3 d10 l3, PS) | 3 | 32 |  | target mRNA inhibition (Human Neuronal Cell, 5 µM): 18%; target mRNA inhibition [1]: 93.4% |
| TTTATCAATATCTTCTCAC (sugars l1 d4 l1 d9 l4, PS) |  |  | 52 |  |
| CTGTATACACCATCCCA (sugars ldldlddddddddldll, PS) |  |  | 62 |  |
| ATCATTCTCAACAATTA (sugars l1 d1 l3 d6 l6, PS) |  |  | -24 |  |
| GATAATTCCAAATCCC (sugars l2 d10 l4, PS) | 16 | 6 |  |  |
| CAACATTATTAACCACCTTA (sugars l1 d13 l3 d1 l2, PS) |  |  | 47 |  |
| TCTTACTCTGACTTTCC (sugars l2 d12 l3, PS) | 68 | 71 |  |  |
| TATTTATACACCATCAT (sugars l3 d11 l3, PS) | 59 | 63 |  |  |
| GAACAACTTCTATCAT (sugars l2 d10 l4, PS) | 16 | 28 |  |  |
| CCATTTATTTCCATTTATT (sugars lddldddddddddlldlll, PS) |  |  | 59 |  |
| AGATCATTCTCAACAATT (sugars ldldlldddddddlllll, PS) |  |  | 32 |  |
| TTATACCCTTTCCAAT (sugars l2 d10 l4, PS) | 40 | 60 |  |  |

| Sequence | target mRNA inhibition (Human Neuronal Cell, 0.2 µM) [%] | target mRNA inhibition (Human Neuronal Cell, 1 µM) [%] | target mRNA inhibition (Human Neuronal Cell, 7.5 µM) [%] | also measured |
| --- | --- | --- | --- | --- |
| AAAATTATTTATACACCATC (sugars l1 d2 l2 d9 l6, PS) |  |  | 56 |  |
| GCACATTCTTTCTATACCT (sugars ldldlddddddddddddll, PS) |  |  | 57 |  |
| AGTTCTACTATACTTTC (sugars ldlldddddddldllll, PS) |  |  | 30 |  |
| ATTGATTCAATTCCCTT (sugars ldldddddddddldlll, PS) |  |  | 54 |  |
| GTTACCTACATCTCAT (sugars l2 d12 l2, PS) | -6 | 20 |  | target mRNA inhibition (Human Neuronal Cell, 5 µM): 31%; target mRNA inhibition [1]: 84.2% |
| AAAATCTCAACTACCATTT (sugars l6 d9 l4, PS) |  |  | 23 |  |
| AGATCATTCTCAACAATTA (sugars ldlddldddddddddllll, PS) |  |  | 50 |  |
| ACTGTTTATACCCTTTCC (sugars lddlddddddddddldll, PS) |  |  | 62 |  |
| TCAGCTTTTAACCAGAGTG (sugars l2 d14 l3, PS) |  |  | 76 |  |
| ATTGATTCAATTCCCTT (sugars lddlddddddddldlll, PS) |  |  | 67 |  |
| TTTACACTTAATTATACTTC (sugars ldddlldddddddllddlll, PS) |  |  | 60 |  |
| CAAACCTACGTCTCTC (sugars l2 d10 l4, PS) | 31 | 26 |  |  |
| TACTCTGCAATACACCA (sugars l1 d2 l2 d10 l2, PS) |  |  | 56 |  |
| TATTCTTACCGTCTTT (sugars l2 d10 l4, PS) | 60 | 68 |  |  |
| TATTGATTCAATTCCC (sugars l3 d10 l3, PS) | 62 | 68 |  |  |
| AGATCATTCTCAACAATTA (sugars ldddlddddddddlldlll, PS) |  |  | 63 |  |
| AGTTCTACTATACTTTC (sugars l3 d10 l1 d1 l2, PS) |  |  | 59 |  |
| AGCTTACCAAATATTC (sugars l4 d10 l2, PS) | 17 | 23 |  |  |
| CTTACCAATAGTTACC (sugars l4 d10 l2, PS) | 45 | 65 |  |  |
| TGAAAATCTCAACTACCAT (sugars lddddlddddddldlldll, PS) |  |  | 42 |  |
| TATTGATTCAATTCCCT (sugars ldddlddddddllldll, PS) |  |  | 10 |  |
| CTATTCTCAGTATTAT (sugars l3 d10 l3, PS) | 19 | 13 |  |  |
| CAACTCTATGACTACC (sugars l2 d10 l4, PS) | 46 | 36 |  |  |

| Sequence | target mRNA inhibition (Human Neuronal Cell, 0.2 µM) [%] | target mRNA inhibition (Human Neuronal Cell, 1 µM) [%] | target mRNA inhibition (Human Neuronal Cell, 7.5 µM) [%] | also measured |
| --- | --- | --- | --- | --- |
| TTTTTATACCTTTCTTTAAC (sugars lllldddddddddldlddll, PS) |  |  | 69 |  |
| ATTGATTCAATTCCCTT (sugars l3 d8 l3 d1 l2, PS) |  |  | 51 |  |
| GTTTCCATCTACTATTAAT (sugars ldddldddddddldldlll, PS) |  |  | 63 |  |
| AATTTTTTTCTTACTATCTT (sugars ldlllldddddddlddddll, PS) |  |  | 55 |  |
| TAAAATTATTTATACACCA (sugars ldlldldddddddllllll, PS) |  |  | 39 |  |
| ATTTTTTTCTTACTATCTTC (sugars ldlldlldddddddddddll, PS) |  |  | 69 |  |
| TTCTACTATACTTTCCTCT (sugars ldddddddddddlddldll, PS) |  |  | 54 |  |
| CTGTATACACCATCCCA (sugars ldlddddddddddldll, PS) |  |  | 62 |  |
| CACTAATAATTCACTTT (sugars l4 d11 l2, PS) | 31 | 49 |  |  |
| TTACACTTAATTATACTTCC (sugars l1 d5 l1 d9 l4, PS) |  |  | 61 |  |
| CTTTTAACCAGAGTGGCAT (sugars l3 d13 l3, PS) |  |  | 62 |  |
| ATATTGATTCAATTCCC (sugars l2 d1 l1 d10 l3, PS) |  |  | 65 |  |
| CTGTATACACCATCCCA (sugars l1 d1 l1 d12 l2, PS) |  |  | 48 |  |
| CCTCAATACTCTACTT (sugars l4 d10 l2, PS) | 43 | 54 |  |  |
| TGACATAACCATATAC (sugars l3 d10 l3, PS) | 20 | 30 |  |  |
| TTTATACCCTTTCCAA (sugars l2 d10 l4, PS) | 55 | 63 |  |  |
| CACCTTAAGTAACATT (sugars l4 d10 l2, PS) | 19 | 21 |  |  |
| TTTACACTTAATTATACTTC (sugars lllddldddddddlldllll, PS) |  |  | 15 |  |
| TTTTTTCTTACTATCTTCAA (sugars llddldldddddddldldll, PS) |  |  | 60 |  |
| TTATAGCCATTCTATCT (sugars l3 d9 l1 d1 l3, PS) |  |  | 54 |  |
